# Test results from patent US20120238630A1, “COMPOSITIONS COMPRISING NONSTEROIDAL ANTI - INFLAMMATORY DRUGS” (Alfa Wassermann S.P.A., priority 2009, published 2012).
# Assay: Bioavailability / systemic FP plasma concentration after oral nebulization of the liquid composition containing FP
# Type: in vivo, human
# Experimental: The solutions have been administered to 26 healthy volunteers, among whom 16 were males and 10 females, aged between 18 and 55.
# The healthy volunteers received the pharmaceutical composition prepared according to Example 1 in two 200 μl nebulizations three times a day, for a seven-day period, then a single administration on the eighth day.
# […]
# During the period of administration of the composition object of the present invention, blood samples were taken before each administration and on days 1, 4, 6, 7 and 8.
# The plasma concentration was determined for each patient before the first dose and, successively, in the morning of the days 1, 4, 6, 7 and 8 and after 1, 2, 3, 4, 6, 8, 10, 12, 16 and 24 hours since the last treatment.
# Each sample was moved into a test tube containing heparin and centrifuged, and the plasma was divided into 500 μl aliquots and freezed at −80° C.
# The following parameters were determined:
# Tmax: time wherein Cmax is reached.
# AUC: area subtended to the concentration-time curve calculated by means of the linear trapezoidal rule.
# [1] = after the last administration (day 8)
substance,measurement,setting,value
2-(2-fluoro-4-phenyl-phenyl) propionic acid [FP],FP average plasma concentrations,1 hour after the last administration (day 8),0.182 µg/mL
same,FP average plasma concentrations,2 hours after the last administration (day 8),0.144 µg/mL
same,FP average plasma concentrations,3 hours after the last administration (day 8),0.115 µg/mL
same,FP average plasma concentrations,4 hours after the last administration (day 8),0.096 µg/mL
same,FP average plasma concentrations,6 hours after the last administration (day 8),0.067 µg/mL
same,FP average plasma concentrations,8 hours after the last administration (day 8),0.045 µg/mL
same,FP average plasma concentrations,10 hours after the last administration (day 8),0.029 µg/mL
same,FP average plasma concentrations,12 hours after the last administration (day 8),0.020 µg/mL
same,FP average plasma concentrations,16 hours after the last administration (day 8),0.008 µg/mL
same,FP average plasma concentrations,24 hours after the last administration (day 8),0.001 µg/mL
same,FP systemic concentrations,"after repeated oral nebulization, healthy volunteers",very low
same,AUC0-inf.,[1],1140 ng·h/mL
same,AUC0-inf. higher than the AUC at the last point,[1],ca. 20%
same,Cmax,"after the last administration (day 8), Example 1 composition nebulized in oral cavity, healthy volunteers",182 ± 50 ng/mL
same,Tmax,"after the last administration (day 8), Example 1 composition, healthy volunteers",1 h
same,AUC0-24,"after the last administration (day 8), linear trapezoidal rule",940 ng·h/mL
same,FP average plasma concentrations,"day 1, time 0 (before the first dose), Example 1 composition, 26 healthy volunteers",0.000 µg/mL
same,FP average plasma concentrations,"day 4, time 0, two 200 μl nebulizations three times a day, Example 1 composition",0.043 µg/mL
same,FP average plasma concentrations,"day 6, time 0, two 200 μl nebulizations three times a day, Example 1 composition",0.042 µg/mL
same,FP average plasma concentrations,"day 7, time 0, two 200 μl nebulizations three times a day, Example 1 composition",0.039 µg/mL
same,FP average plasma concentrations,"day 8, time 0, after seven days of two 200 μl nebulizations three times a day, Example 1 composition",0.040 µg/mL
same,"amount absorbed, times lower than solutions of the same concentration administered by oral route",oropharyngeal application versus literature oral data (Stalker 1991; Gonzalez-Younes 1991),about 10 times
same,FP accumulation in plasma after repeated administrations,"three times a day for seven days, plasma on days 1, 4, 6, 7 and 8",no FP accumulation
